In US20050245452A1, “Pharmaceutical use of novispirins” (Novozymes A/S, priority 2004, published 2005):

Experiments:
[1] = test system: P. acnes (erythromycin sensitive); experiment: MIC on Propionebacterium acnes, erythromycin sensitive strain; format: cell-based
Description: (§1) Minimal Inhibitory Concentration (MIC) of Novispirin G10 (SEQ ID NO: 16) was evaluated against P. acnes. Two strains were tested—one of which is clinically resistant to clindamycin and erythromycin.

[2] = test system: IFN-γ, TNF-α, IL4, IL-6 and IL-10 in lung supernatants; experiment: Lung cytokine response (ELISA of lung supernatants) in P. aeruginosa lung infection in rats; format: in vivo, Lewis rat; parameters: Lung cytokine responses (Mean + SD): IL-4 / Lung cytokine responses (Mean + SD): IL-6 / Lung cytokine responses (Mean + SD): IL-10 / Lung cytokine responses (Mean + SD): IFN-gamma / Lung cytokine responses (Mean + SD): TNF-alpha: unit not given here
Description: The bacterial strain, Pseudomonas aeruginosa, used in the study is CF86/57388A (1997), which is isolated from a cystic fibrosis patient and keeps stable mucoid phenotype. The rat strain used in the study is Lewis rat (7 weeks old, female) imported from Germany. Both bacterial challenge and drug administration were done intratracheally. All rats were challenged with mucoid P. aeruginosa in alginate. The concentration of the bacteria was 1×10^10 CFU/ml and each rat received 0.1 ml (1×10^9 CFU) bacteria. Control group received placebo (sterile saline, 0.1 ml/rat) twice at hour 0 and 3, and the Novispirin G10 group received the peptide (0.1 mg/ml, 0.1 ml/rat) twice at hour 0 and 3. The animals were sacrificed on day 3, 5, 7 and 10 after challenge for parameters evaluation. Supernatants of the lungs were harvested from days 3, 5 and 7 after lung infection and treatment. Interferon-gamma (IFN-γ), tumor necrosis factor-alpha (TNF-α), interleukin4 (IL4), IL-6 and IL-10 were measured by using ELISA kits (Nordic BioSite, Sweden).

[3] = test system: P. acnes (erythromycin resistant); experiment: MIC on Propionebacterium acnes, erythromycin resistant strain; format: cell-based; settings: clinically resistant to clindamycin and erythromycin
Description: as §1

[4] = test system: Pseudomonas aeruginosa (ATCC 27853); experiment: Pseudomonas aeruginosa wound infection in pigs (wound chambers, 4 hour time course); format: in vivo, Göttinger minipigs
Description: The bacterial strain, Pseudomonas aeruginosa, used in the study was ATCC 27853. The amino acid sequence of Novispirin G10 is shown in SEQ ID NO: 16.
Novispirin G10 was diluted in 0.01% acetic acid containing 0.1% BSA with a final concentration of 1 mg (substrate)/ml (solution); 100 micrograms/ml and 10 micrograms/ml. The carrier control was 0.01% acetic acid containing 0.1% BSA.
The chambers are made out of titanium, have a screw top cover (also made out of titanium) and have an inner diameter of 25 mm.
After providing permission to conduct experiments with vertebrates in compliance with German animal protection laws, Göttinger minipigs (Fa. Ellegaard, Dalmose, Denmark, male, No. 86242 and 86260, 12 months old, 35 kg weight) were chosen to implant the chambers on. The pigs were kept at least 2 weeks in the stable, fed a standard porcine diet and housed at 20° C. to 30° C. in an atmosphere of approximately 65% humidity with a light cycle of 12 hours on and 12 hours off. The pig used for this study appeared during the experiments clinically healthy—rectal temperature and body weight remained normal over the observed period.
Before wounding the skin was surgically prepared, washed with soap and desinfected with Octenisept (S&M, Norderstedt, Germany) for five minutes. Twelve wound chambers were implanted on the pigs back and flank between the base of the scapula and the iliac crest. The wounds were spaced a minimum of 5 cm apart and were created in four rows parallel to the columna vertebralis, two rows on each side of the columna vertebralis. The exact size and shape of the wounds were ensured by a special custom-made “round-scalpel”, which has a diameter of 33 mm. Epidermal, dermal subcutaneous tissue was removed, possible bleedings stanched by bipolar diathermy. The chambers were placed with an additionally secant v-incision at positions 6 respectively 12 o'clock on the musculus thoracicus longus fascia and the muscle fascia of the external ripcage muscles. The incisions were sutured with 4-0 Prolene followed by the closure of the chambers. Povidone-iodine salve (Betaisodonna-salve, Mundipharma, Austria) was smothered on the wound edges. The chambers were dressed with paraffin gauze (Jelonet, Smith & Nephew, Lohfelden, Germany) and sterile compresses (Johnson & Johnson, Gargrave, UK). Dressings were changed every second day under sedation (as described above).
Bacterial Background of each chamber was measured every second day to detect potential contamination. One contaminated chamber was detected. Eight days post operation all chambers were inoculated with bacteria.
For bacteria progeny, Pseudomonas aeruginosa (ATCC 27853) was plated on LB-Agar plates and incubated at 37° C. for 18 hours. One colony was picked, and transferred into 3 ml LB-Medium and grown over night at 37° C. at 300 rpm. The over night culture was diluted in 50 ml fresh LB-Medium and incubated for 2.5 hours at 37° C. at 200 rpm.
Bacteria were centrifuged at 4000 rpm, 5 min (Mergafuge 1.0 R, Heraeus, Hanau, Germany), and the pellet was resuspended in PBS. The amount of containing bacteria was determined by OD600 nm-measurement and calculated as follows: Colony forming Unit/ml=OD600 nm×2.5×10^8 (bacteria)
To inoculate one chamber, 5×10^8CFU were used.
The establishment of the infection was proven by the measurment of bacterial counts per chamber. All inoculated chambers were infected after two days.
At fourth day post infection, the antimicrobial effect of the testing substrate was measured in a time course of 4 hours in duration. Each chamber was cleaned before starting the time course, wound fluid was selected and blood clots were discarded. Before starting the time course each chamber was inoculated again with 1×10^8 CFU Pseudomonas aeruginosa to get an equal bacterial amount for each chamber. One ml of the prepared samples with diluted test substrate and carrier control were applied in selected chambers.
Each chamber was rinsed with the applied solution several times. […]

Novispirin G10: novispirin antimicrobial polypeptide; amino acid sequence shown in SEQ ID NO: 16 (KNLRRIIRKGIHIIKKYG; Synthetic antimicrobial peptide)
Minimal Inhibitory Concentration (MIC) [1]: 2 | Lung cytokine responses (Mean + SD): IFN-gamma ([2]; Day 3, lung supernatant): 65.3 ± 28.6 | Lung cytokine responses (Mean + SD): IL-4 ([2]; Day 3, lung supernatant): 34.5 ± 4.5 | Lung cytokine responses (Mean + SD): IL-6 ([2]; Day 3, lung supernatant): 74.1 ± 10.0 | Lung cytokine responses (Mean + SD): IL-10 ([2]; Day 3, lung supernatant): 51.7 ± 2.6 | Lung cytokine responses (Mean + SD): TNF-alpha ([2]; Day 3, lung supernatant): 159.2 ± 23.8 | Lung cytokine responses (Mean + SD): IFN-gamma ([2]; Day 5, lung supernatant): 116.6 ± 42.1 | Lung cytokine responses (Mean + SD): IL-4 ([2]; Day 5, lung supernatant): 45.3 ± 5.9 | Lung cytokine responses (Mean + SD): IL-6 ([2]; Day 5, lung supernatant): 65.2 ± 11.1 | Lung cytokine responses (Mean + SD): IL-10 ([2]; Day 5, lung supernatant): 57.8 ± 7.6 | Lung cytokine responses (Mean + SD): TNF-alpha ([2]; Day 5, lung supernatant): 128.1 ± 19.0 | Lung cytokine responses (Mean + SD): IFN-gamma ([2]; Day 7, lung supernatant): 79.9 ± 16.2 | Lung cytokine responses (Mean + SD): IL-4 ([2]; Day 7, lung supernatant): 37.3 ± 5.9 | Lung cytokine responses (Mean + SD): IL-6 ([2]; Day 7, lung supernatant): 61.5 ± 11.0 | Lung cytokine responses (Mean + SD): IL-10 ([2]; Day 7, lung supernatant): 51.3 ± 2.9 | Lung cytokine responses (Mean + SD): TNF-alpha ([2]; Day 7, lung supernatant): 121.8 ± 19.6 | All 5 kinds of cytokine levels compared to the control group ([2]; day 3, early phase of the infection): significantly lower | Minimal Inhibitory Concentration (MIC) [3]: 1 | Mean CFU per ml sample volume (chamber fluid) ([4]; 1 mg applied (1 ml of 1 mg/ml), 0.05 hours): 667 CFU/ml | Mean CFU per ml sample volume (chamber fluid) ([4]; 1 mg applied (1 ml of 1 mg/ml), 1 hour): 1933 CFU/ml | Mean CFU per ml sample volume (chamber fluid) ([4]; 1 mg applied (1 ml of 1 mg/ml), 2 hours): 1167 CFU/ml | Mean CFU per ml sample volume (chamber fluid) ([4]; 1 mg applied (1 ml of 1 mg/ml), 3 hours): 517 CFU/ml | Mean CFU per ml sample volume (chamber fluid) ([4]; 1 mg applied (1 ml of 1 mg/ml), 4 hours): 733 CFU/ml | Mean CFU per ml sample volume (chamber fluid) ([4]; 10 micrograms applied (1 ml of 10 micrograms/ml), 0.05 hours): 413869 CFU/ml | Mean CFU per ml sample volume (chamber fluid) ([4]; 10 micrograms applied (1 ml of 10 micrograms/ml), 1 hour): 1225733 CFU/ml | Mean CFU per ml sample volume (chamber fluid) ([4]; 10 micrograms applied (1 ml of 10 micrograms/ml), 2 hours): 34811 CFU/ml | Mean CFU per ml sample volume (chamber fluid) ([4]; 10 micrograms applied (1 ml of 10 micrograms/ml), 3 hours): 9612 CFU/ml | Mean CFU per ml sample volume (chamber fluid) ([4]; 10 micrograms applied (1 ml of 10 micrograms/ml), 4 hours): 17322 CFU/ml | Mean CFU per ml sample volume (chamber fluid) ([4]; 100 micrograms applied (1 ml of 100 micrograms/ml), 0.05 hours): 7383 CFU/ml | Mean CFU per ml sample volume (chamber fluid) ([4]; 100 micrograms applied (1 ml of 100 micrograms/ml), 1 hour): 138181 CFU/ml | Mean CFU per ml sample volume (chamber fluid) ([4]; 100 micrograms applied (1 ml of 100 micrograms/ml), 2 hours): 167413 CFU/ml | Mean CFU per ml sample volume (chamber fluid) ([4]; 100 micrograms applied (1 ml of 100 micrograms/ml), 3 hours): 11661 CFU/ml | Mean CFU per ml sample volume (chamber fluid) ([4]; 100 micrograms applied (1 ml of 100 micrograms/ml), 4 hours): 2467 CFU/ml
